In data set [1] the target is T1, Regulator of G-protein signaling 17 (Homo sapiens) (UniProt Q9UGC6).
T1 sequence (whole entry): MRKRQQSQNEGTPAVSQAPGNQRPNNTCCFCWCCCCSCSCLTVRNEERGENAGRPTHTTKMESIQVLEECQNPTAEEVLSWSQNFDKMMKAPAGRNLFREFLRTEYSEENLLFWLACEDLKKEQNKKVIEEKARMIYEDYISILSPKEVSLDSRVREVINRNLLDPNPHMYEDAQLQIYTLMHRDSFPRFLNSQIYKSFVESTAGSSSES
Briefly: Inhibition of RGS17 (unknown origin) assessed as reduction in RGS17 interaction with 6x-his-tagged biotinylated Galpha-o interaction by Alpha-screen assay. (In general: In Alpha technology, singlet oxygen from a donor bead excites a nearby acceptor bead.)

Data set [2] addresses T1, Regulator of G-protein signaling 17 (Homo sapiens). Briefly: Binding affinity to RGS17 (unknown origin) assessed as shifting of protein melting temperature by Sypro-orange dye based differential scanning fluorimetry.
Data set [3] addresses Guanine nucleotide-binding protein G(o) subunit alpha (Homo sapiens) (UniProt P09471). Briefly: Binding affinity to Galpha-o (unknown origin) assessed as shifting of protein melting temperature by Sypro-orange dye based differential scanning fluorimetry.
Data set [4] deals with T1, Regulator of G-protein signaling 17 (Homo sapiens). Put plainly: Inhibition of RGS17 (unknown origin) assessed as reduction in RGS17 interaction with 6x-his-tagged biotinylated Galpha-o interaction at 100 uM followed by 3 times drug wash out with ASB buffer by Alpha-screen assay.
The target is the same in data set [5]. Put plainly: Inhibition of RGS17 (unknown origin) assessed as reduction in RGS17 interaction with 6x-his-tagged biotinylated Galpha-o interaction at 100 uM by Alpha-screen assay.
Data set [6] shares this target. Briefly: Covalent binding affinity to N-terminal deficient RGS17 (unknown origin) assessed as covalent protein-compound adduct formation at 50 uM incubated for 1 hr by MALDI-TOF mass spectrometry.
The target is the same in data set [7]. Put plainly: Inhibition of cell membrane translocation of N-terminal GFP tagged and N-terminal deficient RGS17 (unknown origin) expressed in HEK293T cells co-expressing Galpha-o assessed as induction of delocalization of RGS17deltaN to cytoplasm at 100 uM incubated for 10 mins by confocal microscopy. It is filed as cell-based.
The test system of another data set is HEK-293T. Put plainly: Cytotoxicity in HEK293T cells co-expressing Galpha-o at 100 uM incubated for 10 mins. It counts as cell-based. The conditions noted are these: human.
Data set [8] concerns the target T1, Regulator of G-protein signaling 17 (Homo sapiens). Put plainly: Inhibition of cell membrane translocation of N-terminal GFP tagged and N-terminal deficient RGS17 (unknown origin) expressed in HEK293T cells co-expressing Galpha-o assessed as induction of delocalization of RGS17deltaN to cytoplasm at 10 uM incubated for 10 mins by confocal microscopy. It is filed as cell-based.

Data set [9] shares this target. Briefly: Inhibition of cell membrane translocation of N-terminal GFP tagged full length RGS17 (unknown origin) expressed in HEK293T cells co-expressing Galpha-o at 100 uM incubated for 10 mins by confocal microscopy. It is filed as cell-based.

Calls of active or inactive are those of the source. The rule behind the calls is not given here.

Guanine nucleotide-binding protein G(o) subunit alpha (Homo sapiens), sequence (P09471 2-354 limits assumed): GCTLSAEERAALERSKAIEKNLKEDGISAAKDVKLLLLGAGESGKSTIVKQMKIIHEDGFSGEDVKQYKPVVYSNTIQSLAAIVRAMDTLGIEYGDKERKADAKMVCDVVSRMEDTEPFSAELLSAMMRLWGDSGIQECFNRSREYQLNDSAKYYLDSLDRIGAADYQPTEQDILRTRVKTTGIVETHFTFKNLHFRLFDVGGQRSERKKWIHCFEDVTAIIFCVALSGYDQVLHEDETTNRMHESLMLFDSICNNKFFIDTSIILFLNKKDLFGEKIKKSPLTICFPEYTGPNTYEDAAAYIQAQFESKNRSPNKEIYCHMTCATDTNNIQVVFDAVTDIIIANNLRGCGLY

`CC(C)=CCC[C@]1(C)C=Cc2c(O)c3c(c(CC=C(C)C)c2O1)O[C@]12C(=C[C@@H]4C[C@H]1C(C)(C)O[C@@]2(C/C=C(/C)C(=O)O)C4=O)C3=O` [GAMBOGIC ACID]: the inhibition entry in [1] is “Dose-dependent effect”. Further, the outcome in [2] and in [3] was Active. Further, the inhibition entry in [4] is “Active”. Further, the inhibition result in data set [5] and in [7] was “inactive” each time. Moreover, in [6], the outcome was inactive. The Activity entry in the data set on HEK-293T was “Toxic”.
With `O=c1c(-c2cc(O)c(O)c(O)c2)coc2cc(O)c(O)c(O)c12`, the inhibition result in [1] is “Dose-dependent effect”. For the same compound, in data set [2], the ΔTm (usually the change in melting temperature against a reference sample) was 1 °C. The inhibition entry in data set [4], in [7] and in data set [8] was “Active” throughout. For the same compound, the inhibition result in [5] was “inactive”. Moreover, in data set [6], the result was inactive.
Take `Cc1ccc(-n2sc(=O)n(Cc3ccc(F)cc3)c2=O)cc1`: the inhibition result in data set [7] is “inactive”.
Regarding `C[n+]1cc2c3c(ccc2c2ccc4cc5c(cc4c21)OCO5)OCO3`, the inhibition result in [1] was “Dose-dependent effect”. For the same compound, the ΔTm in data set [2] was 2.1 °C. The inhibition entry in data set [4], in [7] and in data set [8] was “Active” in each case. The inhibition result in data set [5] and in data set [9] was “inactive” throughout. Also, the outcome in data set [6] was inactive.
`CC1=C(O)C(=O)C=C2C1=CC=C1[C@@]2(C)CC[C@@]2(C)[C@@H]3C[C@](C)(C(=O)O)CC[C@]3(C)CC[C@]12C`: in data set [1], the inhibition entry is “Dose-dependent effect”. Moreover, in data set [2], the ΔTm is 1.4 °C. In addition, the inhibition result in [4], in [7] and in [8] was “Active” each time. Besides, the inhibition result in [5] is “inactive”. The result in data set [6] was inactive.

The values above are taken from ChEMBL document CHEMBL4417625, “Therapeutic compounds and methods” (2016).
